Earlier results as cited in patent US11192861B2, “Human plasma kallikrein inhibitors” (BioCryst Pharmaceuticals, Inc., priority 2014, dated 2021).

System: hereditary angioedema (HAE)

Compound | effectiveness in treating HAE (in vivo) | edema in patients with hereditary angioedema (patients with HAE)
NC(N)=NCCC[C@@H](N)C(=O)N[C@@H](CCCN=C(N)N)C(=O)N1CCC[C@H]1C(=O)N1C[C@H](O)C[C@H]1C(=O)NCC(=O)N[C@@H](Cc1cccs1)C(=O)N[C@@H](CO)C(=O)N1Cc2ccccc2C[C@@H]1C(=O)N1[C@H](C(=O)N[C@@H](CCCN=C(N)N)C(=O)O)C[C@@H]2CCCC[C@@H]21 [Icatibant] | effective in treating HAE | 
ecallantide [DX-88] |  | alleviates edema
